The target in assay [1] is Homeodomain-interacting protein kinase 2 (Homo sapiens, UniProt Q9H2X6). As to the kind of experiment: Selectivity interaction (Ambit KINOMEscan and KiNATiv profiling in Jurkat cells) EUB0000090b HIPK2. It is filed as cell-based. The conditions noted are these: at 1 µM.
Assay [2] concerns the target Serine/threonine-protein kinase SIK2 (Homo sapiens) (UniProt Q9H0K1). As to the kind of experiment: Selectivity interaction (Ambit KINOMEscan and KiNATiv profiling in Jurkat cells) EUB0000090b SIK2. It is filed as cell-based. The conditions noted are these: at 1 µM.
Assay [3] addresses Ribosomal protein S6 kinase alpha-2 (Homo sapiens) (UniProt Q15349). Nature of the assay: Selectivity interaction (KinomeScan (DiscoverX)) EUB0000666a RPS6KA2. The settings on record: at 10 µM.
The target in assay [4] is DNA (cytosine-5)-methyltransferase 3A (Homo sapiens) (UniProt Q9Y6K1). The conditions noted are these: at 10 µM.
Assay [5] concerns the target Protein kinase C theta type (Homo sapiens, UniProt Q04759). Nature of the assay: Selectivity interaction (KinomeScan (DiscoverX)) EUB0000229b PRKCQ. The settings on record: at 10 µM.
In assay [6] the target is Histone-lysine N-methyltransferase SETD2 (Homo sapiens) (UniProt Q9BYW2). As to the kind of experiment: Selectivity interaction (Methyltransferase screen (Scintillation proximity assays)) EUB0000255b SETD2. (In general: SPA uses beads or plates that emit light when radiolabelled molecules are held near them.)
Chain of Histone-lysine N-methyltransferase SETD2 (Homo sapiens) (Q9BYW2 whole entry, canonical isoform): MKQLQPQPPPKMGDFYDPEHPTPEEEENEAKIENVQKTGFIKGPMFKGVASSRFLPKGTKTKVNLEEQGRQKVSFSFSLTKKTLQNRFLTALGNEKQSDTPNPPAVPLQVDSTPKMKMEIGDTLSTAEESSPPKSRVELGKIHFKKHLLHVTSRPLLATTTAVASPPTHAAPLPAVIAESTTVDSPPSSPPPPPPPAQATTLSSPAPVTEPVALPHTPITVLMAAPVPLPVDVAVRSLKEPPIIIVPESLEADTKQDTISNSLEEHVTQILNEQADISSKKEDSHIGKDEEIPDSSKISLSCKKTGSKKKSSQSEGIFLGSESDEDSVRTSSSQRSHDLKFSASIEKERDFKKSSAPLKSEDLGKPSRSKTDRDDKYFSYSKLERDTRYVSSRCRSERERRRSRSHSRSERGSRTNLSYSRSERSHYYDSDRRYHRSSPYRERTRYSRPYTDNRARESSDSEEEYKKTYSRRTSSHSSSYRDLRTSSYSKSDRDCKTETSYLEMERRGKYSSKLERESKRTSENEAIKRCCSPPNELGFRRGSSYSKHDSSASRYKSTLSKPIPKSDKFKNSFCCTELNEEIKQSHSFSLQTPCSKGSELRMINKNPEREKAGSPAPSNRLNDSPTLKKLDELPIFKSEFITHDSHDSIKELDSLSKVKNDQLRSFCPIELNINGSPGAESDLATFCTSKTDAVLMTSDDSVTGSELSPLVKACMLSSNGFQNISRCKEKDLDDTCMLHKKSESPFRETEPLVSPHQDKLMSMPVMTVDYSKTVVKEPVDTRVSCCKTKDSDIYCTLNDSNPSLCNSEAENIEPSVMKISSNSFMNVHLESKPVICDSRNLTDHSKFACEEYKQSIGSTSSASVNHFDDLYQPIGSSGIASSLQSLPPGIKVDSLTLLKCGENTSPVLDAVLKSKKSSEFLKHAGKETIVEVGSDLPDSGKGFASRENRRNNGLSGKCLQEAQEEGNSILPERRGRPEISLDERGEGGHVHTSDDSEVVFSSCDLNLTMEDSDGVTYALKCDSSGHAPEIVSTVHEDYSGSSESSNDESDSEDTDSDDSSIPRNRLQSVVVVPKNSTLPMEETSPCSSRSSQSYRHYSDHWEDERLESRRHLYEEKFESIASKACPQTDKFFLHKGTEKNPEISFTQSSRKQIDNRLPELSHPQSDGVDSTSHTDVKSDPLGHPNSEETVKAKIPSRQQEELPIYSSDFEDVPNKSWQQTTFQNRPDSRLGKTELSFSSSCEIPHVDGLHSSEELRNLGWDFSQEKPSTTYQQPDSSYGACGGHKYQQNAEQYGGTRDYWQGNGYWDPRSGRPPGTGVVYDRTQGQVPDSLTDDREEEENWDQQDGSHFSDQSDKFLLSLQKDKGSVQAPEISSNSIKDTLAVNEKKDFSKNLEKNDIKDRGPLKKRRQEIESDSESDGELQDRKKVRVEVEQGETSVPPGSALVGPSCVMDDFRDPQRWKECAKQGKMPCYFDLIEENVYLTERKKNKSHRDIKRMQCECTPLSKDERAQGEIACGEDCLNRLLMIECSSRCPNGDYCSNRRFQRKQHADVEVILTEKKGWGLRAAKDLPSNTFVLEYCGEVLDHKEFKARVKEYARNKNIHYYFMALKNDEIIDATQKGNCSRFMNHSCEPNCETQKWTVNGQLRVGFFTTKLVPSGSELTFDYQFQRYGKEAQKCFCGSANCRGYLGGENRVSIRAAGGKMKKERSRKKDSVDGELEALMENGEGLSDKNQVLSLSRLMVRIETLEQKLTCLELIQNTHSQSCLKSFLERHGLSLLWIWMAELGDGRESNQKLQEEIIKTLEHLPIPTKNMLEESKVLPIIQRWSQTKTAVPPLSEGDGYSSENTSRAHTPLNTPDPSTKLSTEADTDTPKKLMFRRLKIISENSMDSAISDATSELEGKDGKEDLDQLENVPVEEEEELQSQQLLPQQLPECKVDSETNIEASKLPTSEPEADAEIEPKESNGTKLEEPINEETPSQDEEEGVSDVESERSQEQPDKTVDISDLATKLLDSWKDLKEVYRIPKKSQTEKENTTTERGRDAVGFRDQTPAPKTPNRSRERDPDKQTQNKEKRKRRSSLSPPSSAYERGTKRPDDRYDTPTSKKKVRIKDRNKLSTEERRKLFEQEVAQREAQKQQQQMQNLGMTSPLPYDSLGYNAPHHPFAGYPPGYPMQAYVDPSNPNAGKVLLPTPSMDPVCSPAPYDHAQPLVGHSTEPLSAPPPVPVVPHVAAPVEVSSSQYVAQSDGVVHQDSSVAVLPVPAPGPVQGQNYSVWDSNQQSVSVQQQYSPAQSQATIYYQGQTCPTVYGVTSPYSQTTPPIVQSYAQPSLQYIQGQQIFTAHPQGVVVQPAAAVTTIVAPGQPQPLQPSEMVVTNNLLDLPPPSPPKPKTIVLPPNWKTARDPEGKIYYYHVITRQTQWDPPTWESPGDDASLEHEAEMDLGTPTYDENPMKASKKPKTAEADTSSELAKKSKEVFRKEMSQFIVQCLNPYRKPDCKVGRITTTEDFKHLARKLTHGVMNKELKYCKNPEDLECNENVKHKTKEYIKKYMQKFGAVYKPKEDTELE
The target of assay [7] is Casein kinase I isoform gamma-2 (Homo sapiens) (UniProt P78368). As to the kind of experiment: Selectivity interaction (KinomeScan (DiscoverX)) EUB0000655a CSNK1G2. The conditions noted are these: at 10 µM.
Chain of Casein kinase I isoform gamma-2 (Homo sapiens) (P78368 whole entry, looked up, canonical isoform): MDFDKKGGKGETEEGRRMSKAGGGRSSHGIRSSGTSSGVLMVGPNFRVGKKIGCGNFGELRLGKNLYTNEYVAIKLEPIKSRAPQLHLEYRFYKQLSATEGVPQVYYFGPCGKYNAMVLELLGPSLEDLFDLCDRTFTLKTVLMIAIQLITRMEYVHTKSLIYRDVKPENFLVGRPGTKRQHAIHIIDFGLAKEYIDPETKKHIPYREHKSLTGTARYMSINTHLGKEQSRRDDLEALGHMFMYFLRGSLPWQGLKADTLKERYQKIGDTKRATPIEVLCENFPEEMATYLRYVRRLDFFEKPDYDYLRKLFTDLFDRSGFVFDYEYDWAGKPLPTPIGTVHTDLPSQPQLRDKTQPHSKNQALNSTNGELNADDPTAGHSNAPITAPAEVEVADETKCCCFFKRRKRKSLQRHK
Assay [8] concerns the target Mitogen-activated protein kinase 7 (Homo sapiens) (UniProt Q13164). Nature of the assay: Selectivity interaction (KinomeScan (DiscoverX)) EUB0000655a MAPK7. The conditions noted are these: at 10 µM.
In assay [9] the target is cAMP-dependent protein kinase catalytic subunit beta (Homo sapiens) (UniProt P22694). As to the kind of experiment: Selectivity interaction (KinomeScan (DiscoverX)) EUB0001079a PRKACB. The conditions noted are these: at 1 µM.
Assay [10] addresses Proto-oncogene tyrosine-protein kinase Src (Homo sapiens, UniProt P12931). Nature of the assay: Selectivity interaction (KinomeScan (DiscoverX)) EUB0001079a SRC. The settings on record: at 1 µM.
For assay [11], the target named is Acetylcholine receptor subunit alpha (Homo sapiens, UniProt P02708). As to the kind of experiment: Selectivity interaction (Panel of kinases, GPCRs, ion channels and transporters (enzymatic assay)) EUB0000266bCl CHRNA1.
The target of assay [12] is Tyrosine-protein kinase HCK (Homo sapiens) (UniProt P08631). Nature of the assay: Selectivity interaction (KinaseProfiler screening (Millipore)) EUB0000601a HCK. The conditions noted are these: at 3 µM.
The target of assay [13] is Myosin light chain kinase 2, skeletal/cardiac muscle (Homo sapiens) (UniProt Q9H1R3). Nature of the assay: Selectivity interaction (Kinase panel (literature)) EUB0001199aCl MYLK2. The settings on record: at 1 µM.
In assay [14] the target is Tyrosine-protein kinase Fer (Homo sapiens) (UniProt P16591). Nature of the assay: Selectivity interaction (Kinase panel (Invitrogen)) EUB0000639a FER. The conditions noted are these: at 200 nM.
Chain of Tyrosine-protein kinase Fer (Homo sapiens) (P16591 whole entry, looked up): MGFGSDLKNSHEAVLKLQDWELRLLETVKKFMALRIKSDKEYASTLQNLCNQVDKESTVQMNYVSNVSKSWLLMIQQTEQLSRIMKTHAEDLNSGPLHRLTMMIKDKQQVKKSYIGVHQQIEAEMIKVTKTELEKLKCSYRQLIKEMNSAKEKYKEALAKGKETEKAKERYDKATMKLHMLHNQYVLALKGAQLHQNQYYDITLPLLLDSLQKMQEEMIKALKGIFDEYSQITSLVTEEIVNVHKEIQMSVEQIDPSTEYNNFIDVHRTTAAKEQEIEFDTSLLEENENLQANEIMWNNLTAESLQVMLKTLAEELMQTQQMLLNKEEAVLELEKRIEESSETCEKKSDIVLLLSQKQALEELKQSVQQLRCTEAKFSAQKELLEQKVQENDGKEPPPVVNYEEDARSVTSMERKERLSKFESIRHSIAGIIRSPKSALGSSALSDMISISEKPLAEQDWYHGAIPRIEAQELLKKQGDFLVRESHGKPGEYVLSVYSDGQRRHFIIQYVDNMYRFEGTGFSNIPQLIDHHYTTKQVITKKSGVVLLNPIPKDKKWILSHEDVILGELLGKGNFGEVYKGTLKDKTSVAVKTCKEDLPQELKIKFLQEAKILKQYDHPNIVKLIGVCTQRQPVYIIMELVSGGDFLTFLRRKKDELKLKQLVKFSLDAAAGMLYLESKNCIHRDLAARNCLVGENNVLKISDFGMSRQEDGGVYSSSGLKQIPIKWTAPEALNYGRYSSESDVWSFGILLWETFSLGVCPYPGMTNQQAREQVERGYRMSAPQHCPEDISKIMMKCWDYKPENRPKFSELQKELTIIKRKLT
Assay [15] addresses Interferon-induced, double-stranded RNA-activated protein kinase (Homo sapiens) (UniProt P19525). Nature of the assay: Selectivity interaction (ActivX KiNativ screen (kinase selectivity in THP-1 cell lysates)) EUB0000639a EIF2AK2. It is filed as subcellular. The conditions noted are these: lysate, at 0.04 µM.
Assay [16] addresses Dual specificity tyrosine-phosphorylation-regulated kinase 1A (Homo sapiens, UniProt Q13627). Nature of the assay: Selectivity interaction (Kinase screening (Nanosyn)) EUB0000604a DYRK1A.
Assay [17] deals with T1, Testis-specific serine/threonine-protein kinase 2 (Homo sapiens) (UniProt Q96PF2).
T1 sequence (whole entry): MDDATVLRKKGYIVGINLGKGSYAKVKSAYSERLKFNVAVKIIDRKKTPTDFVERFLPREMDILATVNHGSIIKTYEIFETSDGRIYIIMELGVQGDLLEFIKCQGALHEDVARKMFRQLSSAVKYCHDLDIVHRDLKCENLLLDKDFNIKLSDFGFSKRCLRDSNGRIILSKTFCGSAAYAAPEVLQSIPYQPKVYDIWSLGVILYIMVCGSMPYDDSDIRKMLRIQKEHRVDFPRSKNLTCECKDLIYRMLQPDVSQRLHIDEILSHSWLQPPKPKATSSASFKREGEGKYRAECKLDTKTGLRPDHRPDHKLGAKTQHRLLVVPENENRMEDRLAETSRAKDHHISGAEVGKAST
Nature of the assay: Selectivity interaction (ProQinase) EUB0000171b TSSK2.

Assay [18] concerns the target T2, Inhibitor of nuclear factor kappa-B kinase subunit beta (Homo sapiens) (UniProt O14920).
T2 sequence (whole entry): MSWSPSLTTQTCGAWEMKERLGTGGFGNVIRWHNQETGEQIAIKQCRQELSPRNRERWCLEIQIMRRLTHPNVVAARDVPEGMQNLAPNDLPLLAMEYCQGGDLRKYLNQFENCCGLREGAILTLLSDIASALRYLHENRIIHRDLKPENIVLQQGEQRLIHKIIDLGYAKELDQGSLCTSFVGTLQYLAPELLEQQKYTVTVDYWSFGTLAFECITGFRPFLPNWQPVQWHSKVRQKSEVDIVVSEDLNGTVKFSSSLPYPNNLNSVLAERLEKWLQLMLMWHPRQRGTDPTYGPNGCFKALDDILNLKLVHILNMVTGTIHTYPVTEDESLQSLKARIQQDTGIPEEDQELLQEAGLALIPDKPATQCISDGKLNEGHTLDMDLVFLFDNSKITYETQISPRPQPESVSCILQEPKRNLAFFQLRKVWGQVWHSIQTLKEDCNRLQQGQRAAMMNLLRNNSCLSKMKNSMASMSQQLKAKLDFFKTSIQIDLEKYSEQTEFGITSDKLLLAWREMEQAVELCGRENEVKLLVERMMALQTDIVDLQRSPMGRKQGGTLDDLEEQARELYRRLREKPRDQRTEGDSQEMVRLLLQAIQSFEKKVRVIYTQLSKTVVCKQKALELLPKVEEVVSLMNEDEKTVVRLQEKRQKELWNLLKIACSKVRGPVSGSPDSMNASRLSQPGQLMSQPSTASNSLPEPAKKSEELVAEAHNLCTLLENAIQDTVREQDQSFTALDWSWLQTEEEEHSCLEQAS
As to the kind of experiment: Selectivity interaction (KinomeScan (DiscoverX)) EUB0000092b IKBKB. The conditions noted are these: at 10 µM.

The target in assay [19] is Phosphatidylinositol 4-phosphate 3-kinase C2 domain-containing subunit beta (Homo sapiens) (UniProt O00750). As to the kind of experiment: Selectivity interaction (KinomeScan (DiscoverX)) EUB0000092b PIK3C2B. The settings on record: at 10 µM.
The target in assay [20] is Non-receptor tyrosine-protein kinase TYK2 (Homo sapiens, UniProt P29597). Nature of the assay: Selectivity interaction (KinomeScan (DiscoverX)) EUB0000618a TYK2. The settings on record: at 10 µM.
Assay [21] concerns the target Calcium/calmodulin-dependent protein kinase kinase 2 (Homo sapiens) (UniProt Q96RR4). As to the kind of experiment: Selectivity interaction (KinomeScan (DiscoverX)) EUB0000595a CAMKK2. The settings on record: at 10 µM.

Chain of Protein kinase C theta type (Q04759 whole entry, looked up): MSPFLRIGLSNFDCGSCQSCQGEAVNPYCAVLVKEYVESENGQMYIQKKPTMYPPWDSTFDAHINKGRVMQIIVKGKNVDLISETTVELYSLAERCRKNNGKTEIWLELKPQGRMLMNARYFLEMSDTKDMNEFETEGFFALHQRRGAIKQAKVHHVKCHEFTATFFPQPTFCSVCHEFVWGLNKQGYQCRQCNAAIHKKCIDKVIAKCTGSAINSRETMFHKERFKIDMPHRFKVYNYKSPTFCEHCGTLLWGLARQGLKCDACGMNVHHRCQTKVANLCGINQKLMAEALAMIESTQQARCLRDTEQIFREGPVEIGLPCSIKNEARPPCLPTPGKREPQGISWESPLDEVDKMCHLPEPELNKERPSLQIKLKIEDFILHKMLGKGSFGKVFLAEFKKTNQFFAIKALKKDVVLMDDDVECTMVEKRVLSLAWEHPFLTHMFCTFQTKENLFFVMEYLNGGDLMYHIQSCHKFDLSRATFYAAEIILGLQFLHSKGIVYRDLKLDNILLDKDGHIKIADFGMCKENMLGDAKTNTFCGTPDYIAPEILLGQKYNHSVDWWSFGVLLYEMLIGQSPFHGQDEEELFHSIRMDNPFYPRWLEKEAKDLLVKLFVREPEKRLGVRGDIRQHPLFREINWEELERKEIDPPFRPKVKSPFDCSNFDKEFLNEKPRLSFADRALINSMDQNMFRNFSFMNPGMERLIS
Chain of Calcium/calmodulin-dependent protein kinase kinase 2 (Homo sapiens) (Q96RR4 2-588 limits assumed): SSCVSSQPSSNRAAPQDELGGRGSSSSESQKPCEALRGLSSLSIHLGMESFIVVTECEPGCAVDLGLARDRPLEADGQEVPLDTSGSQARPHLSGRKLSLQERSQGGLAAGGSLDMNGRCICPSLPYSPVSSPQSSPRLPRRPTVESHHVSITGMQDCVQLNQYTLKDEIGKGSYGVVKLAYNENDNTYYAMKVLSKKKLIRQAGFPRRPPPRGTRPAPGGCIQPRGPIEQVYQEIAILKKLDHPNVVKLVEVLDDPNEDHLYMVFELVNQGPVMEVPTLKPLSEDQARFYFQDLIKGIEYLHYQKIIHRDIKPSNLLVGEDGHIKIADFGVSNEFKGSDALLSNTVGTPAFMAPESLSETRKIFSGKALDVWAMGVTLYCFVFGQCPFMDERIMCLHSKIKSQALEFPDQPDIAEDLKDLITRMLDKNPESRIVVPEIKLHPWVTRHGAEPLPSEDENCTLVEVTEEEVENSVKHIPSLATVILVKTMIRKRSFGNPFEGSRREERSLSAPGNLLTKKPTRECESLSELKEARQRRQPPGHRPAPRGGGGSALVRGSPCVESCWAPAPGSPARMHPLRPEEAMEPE

As to `CN(C)C/C=C/C(=O)Nc1ccc(C(=O)N2CCCC(Nc3ncc(Cl)c(-c4c[nH]c5ccccc45)n3)C2)cc1` (stereo not drawn), the % of control in [1] stood at 70%; in assay [2] it was 93%.
As to `O=C(NOC[C@H](O)CO)c1ccc(F)c(F)c1Nc1ccc(I)cc1F`, the % of control in [3] turned out to be 92%.
On to `CNCCN1CCC(c2cc(CN(C)C(=O)c3cccc(Oc4ccccc4)c3)ccn2)CC1`, for which, in [4], the % activity is greater than 90%.
`COc1cc(N(C)c2ccnc3ccc(C(F)(F)F)cc23)cc(OC)c1OC`: the % binding in assay [5] came to 66%.
`COCCN1CCC(c2cc(CN(C)C(=O)c3cccc(Oc4ccccc4)c3)ccn2)CC1`: the % activity in [6] (at 1 µM) is greater than 95%; in assay [6] (at 10 µM) it was greater than 90%.
With `CN(C)CCOc1ccc(-c2nc(-c3ccncc3)c(-c3ccc4c(c3)CC/C4=N\O)[nH]2)cc1`, the % of control in assay [7] stood at 72%; in assay [8], 97%.
For `Nc1cnc(N2CCc3cc(S(=O)(=O)Nc4c(F)cc(Cl)cc4F)cc(N4CCCC4=O)c32)nc1` [TP-020n], the % of control in assay [9] was 100%; in assay [10], 99%.
In assay [11], `CCn1c(-c2nc3cc(C(=O)N4CCCC(N)C4)ccc3n2C)cc2ccccc21` (stereo not drawn) came in with a pXC50 of less than 4.8 M.
For `CCc1cc(Nc2nccc(-c3c(-c4ccc(OC)c(C(=O)Nc5c(F)cccc5F)c4)nc4ccccn34)n2)c(OC)cc1N1CCC(N2CCN(S(C)(=O)=O)CC2)CC1`, in [12], the % of inhibition was found to be 81%.
The molecule `CN1Cc2nccc(-c3cn(C)nc3-c3ccc(F)cc3)c2C1=O` returned a % of inhibition in assay [13] of 5%.
On to `CC[C@@H]1[C@H](F)C(=O)N[C@@H]1COc1nccc2cc(C(N)=O)c(OC)cc12` [ZIMLOVISERTIB], for which the values for the % of inhibition in assay [14] and in [15] were 9.46% and 3.1%, respectively.
`Cc1cnc(Nc2ccc(F)cc2Cl)nc1-c1c[nH]c(C(=O)N[C@H](CO)c2cccc(Cl)c2)c1` had a % of inhibition in assay [16] of 3%.
With `C=CC(=O)Nc1cccc(C(=O)Nc2ccc(Nc3cc(-c4[nH]c(SC)nc4C)ccn3)cc2)c1`, the values for the % of control in assay [17] (at 1 µM) and in [17] (at 5 µM) were 90% and 97%, respectively.
Take `CCC(=O)N1CCN(c2ccc(-n3c(=O)ccc4cnc5ccc(-c6cnc7ccccc7c6)cc5c43)cc2C(F)(F)F)CC1`: the results for the % of control in [18] and in assay [19] were 61% and 25%, respectively.
Turning to `O[C@H]1CC[C@H](Nc2ncc3nc(Nc4c(F)cc(F)cc4F)n([C@H]4CCOC4)c3n2)CC1`, the % of control in assay [20] turned out to be 61%.
Regarding `COCC(=O)NC/C=C/c1ccc2ncnc(Nc3ccc(Oc4ccc(C)nc4)c(C)c3)c2c1` [CP-724714], in assay [21], the % of control came out at 85%.

For the origin of these results see ChEMBL document CHEMBL5465560, “Selectivity Literature for EUbOPEN Chemogenomic Library” (2024).
